From PMC5654082 (Malaria Journal, 2017)
Structures can show the parent of a compound that is named as a salt. Where two headings read alike, the source gives them in different places. Marks after values point to notes of the source that are not given here.

Experiments:
[1] = Ugandan children aged 5–13 years with uncomplicated malaria; (geometric) mean or median; cited from earlier work
human OCT1 [2] = target: T1, human OCT1 (Homo sapiens, UniProt O15245); test: Inhibition of OCT1-mediated ASP uptake in transduced HEK293 cells; format: cell-based; settings: 50 µM anti-malarial, 10 µM ASP, 10 min, 37 °C; relative to solvent control fixed at 100%
T1 construct: host or cells: HEK293, baculovirus transduction (CMV promoter), transient
T1 sequence (O15245 1-554): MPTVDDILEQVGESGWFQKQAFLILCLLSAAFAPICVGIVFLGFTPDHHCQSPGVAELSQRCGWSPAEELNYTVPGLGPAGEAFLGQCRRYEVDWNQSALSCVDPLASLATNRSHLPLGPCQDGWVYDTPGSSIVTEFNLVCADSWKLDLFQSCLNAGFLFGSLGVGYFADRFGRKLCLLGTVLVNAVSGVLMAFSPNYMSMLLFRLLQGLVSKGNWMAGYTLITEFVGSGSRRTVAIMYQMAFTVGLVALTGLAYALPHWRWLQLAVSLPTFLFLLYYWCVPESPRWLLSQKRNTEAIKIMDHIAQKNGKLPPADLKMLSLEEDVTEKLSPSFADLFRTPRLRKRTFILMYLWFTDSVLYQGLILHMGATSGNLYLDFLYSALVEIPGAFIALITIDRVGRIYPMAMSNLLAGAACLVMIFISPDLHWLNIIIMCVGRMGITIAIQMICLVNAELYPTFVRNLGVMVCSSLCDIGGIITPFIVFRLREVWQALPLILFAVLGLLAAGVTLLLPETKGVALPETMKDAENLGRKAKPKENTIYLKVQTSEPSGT
Description: (§1) HEK293 cells were modified to transiently express (a combination of) human OCT1, OCT2, MATE1, MATE2-K, or eYFP. Briefly, cDNA of the respective genes was cloned downstream of a CMV promoter into a baculovirus, of which passage three was used to transduce HEK293 cells. These cells were seeded in poly-D-lysine coated 24- or 96-wells plates and grown in a 37 °C incubator at 5% CO2. Growth was initiated at ~ 25% confluency using 375 or 125 μL cell and complete medium (DMEM + GlutaMAX™-I supplemented with 10% fetal bovine serum) suspension per well, respectively. After 24 h, cells were transduced with 30 µL virus (10 µL virus + 20 µL complete medium in case of 96-wells plates) or 2 × 15 µL virus for cells that required simultaneous expression of two transporters. Finally, 195 µL sodium butyrate (45 µL for 96-wells plates) was added to a final concentration of 2 mM to enhance protein expression.
AMO (10 mM), ASP (1 mM), CQ (10 mM), PQ (10 mM) and PG (10 mM) were dissolved in MilliQ water. ART (10 mM), ATO (10 mM), DHA (10 mM), LUM (10 mM), MQ (10 mM), NMQ (20 mM), PYR (10 mM), QN (10 mM) were dissolved in DMSO. All compound stocks were stored at − 20 °C. Inhibition of OCT1- or OCT2-mediated ASP uptake by anti-malarials was performed in poly-D-lysine coated 96-wells plates 2 or 3 days following HEK293 cell transduction. In short, cells were washed with 125 µL 37 °C HBSS containing 10 mM HEPES, pH 7.4. Then, a 50 µL mixture of ASP (10 µM) and anti-malarial compound (25, 50 or 100 µM) in HBSS buffer (pH 7.4) was added to each well and incubated for 10 min at 37 °C. ASP transport was stopped by washing with 125 µL ice-cold HBSS-HEPES buffer supplemented with 0.5% BSA. Following a second wash with 125 µL ice-cold HBSS-HEPES buffer, cells were lysed with 125 µL 1 M NaOH and ASP was excited at a wavelength of 485 nm and fluorescence was detected at an emission wavelength of 535 nm using the Victor X3 multimode plate reader.
(§2) For each compound, a range of seven concentrations was used to determine the concentration at which ASP uptake was inhibited half maximally (IC50). At least three independent experiments (4 for QN) were performed for each drug in triplicate as described above. Inhibition curves were plotted by nonlinear regression analyses of the data using GraphPad Prism version 5.03. […] To generate the final dose–response inhibition curve per anti-malarial, percentage of uptake was averaged for each drug concentration per experiment and the resulting mean ± SEM corresponding to three or four independent experiments were plotted.

[3] = Maximum plasma concentration from in vivo pharmacokinetic studies after therapeutic dosing; settings: human, the literature Cmax (ng/mL) of Table 2 expressed in µM
Source text: As Cmax the (geometric) mean or median maximum plasma concentrations obtained from previous in vivo pharmacokinetic studies after therapeutic dosing was used.

[4] = cited from earlier work
human OCT2 [5] = target: T2, human OCT2 (Homo sapiens, UniProt O15244); test: Inhibition of OCT2-mediated ASP uptake in transduced HEK293 cells; format: cell-based
T2 construct: host or cells: HEK293, baculovirus transduction (CMV promoter), transient
T2 sequence (O15244 1-555): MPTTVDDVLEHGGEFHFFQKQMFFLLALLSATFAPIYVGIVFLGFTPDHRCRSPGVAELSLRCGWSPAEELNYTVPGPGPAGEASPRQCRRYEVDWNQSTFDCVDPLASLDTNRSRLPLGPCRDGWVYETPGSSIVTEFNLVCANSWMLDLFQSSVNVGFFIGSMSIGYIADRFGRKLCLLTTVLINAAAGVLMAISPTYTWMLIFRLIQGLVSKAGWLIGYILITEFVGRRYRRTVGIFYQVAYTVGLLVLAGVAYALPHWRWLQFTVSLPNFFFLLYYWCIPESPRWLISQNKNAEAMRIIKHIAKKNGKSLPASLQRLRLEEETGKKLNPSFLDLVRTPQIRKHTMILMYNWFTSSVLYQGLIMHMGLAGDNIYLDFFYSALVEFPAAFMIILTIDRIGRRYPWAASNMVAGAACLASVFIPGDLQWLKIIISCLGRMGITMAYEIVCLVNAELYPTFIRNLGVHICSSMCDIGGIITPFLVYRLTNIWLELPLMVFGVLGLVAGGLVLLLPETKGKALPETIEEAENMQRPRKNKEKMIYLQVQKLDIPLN
Description: as §1, with “Growth was initiated at ~ 25% confluency using 375 or 125 μL cell and complete medium (DMEM + GlutaMAX™-I supplemented with 10% fetal bovine serum) suspension per well, respectively.” left out
AMO (10 mM), ASP (1 mM), CQ (10 mM), PQ (10 mM) and PG (10 mM) were dissolved in MilliQ water. ART (10 mM), ATO (10 mM), DHA (10 mM), LUM (10 mM), MQ (10 mM), NMQ (20 mM), PYR (10 mM), QN (10 mM) were dissolved in DMSO. All compound stocks were stored at − 20 °C. Inhibition of OCT1- or OCT2-mediated ASP uptake by anti-malarials was performed in poly-D-lysine coated 96-wells plates 2 or 3 days following HEK293 cell transduction. In short, cells were washed with 125 µL 37 °C HBSS containing 10 mM HEPES, pH 7.4. […] ASP transport was stopped by washing with 125 µL ice-cold HBSS-HEPES buffer supplemented with 0.5% BSA.
as §2, with “above.” for “above. Inhibition curves were plotted by nonlinear regression analyses of the data using GraphPad Prism version 5.03.”

human OCT2 [6] = target: T2, human OCT2; test: OCT2-mediated cellular import in transduced HEK293 cells (LC-MS/MS); format: cell-based; settings: 10 µM, 15 min, 37 °C
Description: as §1
HEK293 cells were seeded in 24-wells poly-D-lysine coated plates and transduced the subsequent day with OCT1 or OCT2 as described above. Three days following transduction, OCT1- or OCT2-mediated uptake of ten anti-malarials (AMO, ART, ATO, CQ, DHA, LUM, MQ, PQ, PG, and QN) was performed. […] Following a second wash with 400 µL ice-cold HBSS-HEPES buffer, cells were lysed with 200 µL 50% (v/v) MeOH and 0.1% (v/v) formic acid (HCOOH) in water and samples were sent for quantification by mass spectrometry analysis (see “LC–MS/MS quantification of anti-malarials” section). […]
(§3) The affinity (KM) and maximum transport rate (Vmax) for OCT1 and OCT2 of PG were determined by analysing concentration-dependent uptake data from three independent experiments.
Import and export of PG and cycloguanil (CG) was assessed by single and double transduced HEK293 cells. […] Following the same procedure as for the cellular import assay described above, the import of 100 µM PG and CG was measured after 5 min incubation and data was plotted as mean pmol/mg/min ± SEM. […] Significant reduction in uptake (i.e. export by MATEs) was determined using ln transformation and a one-way repeated measures ANOVA with Dunnet’s post test. […]

human OCT1 [7] = target: T1, human OCT1; test: OCT1-mediated cellular import in transduced HEK293 cells (LC-MS/MS); format: cell-based; settings: 10 µM, 15 min, 37 °C
Description: as §1
HEK293 cells were seeded in 24-wells poly-D-lysine coated plates and transduced the subsequent day with OCT1 or OCT2 as described above. Three days following transduction, OCT1- or OCT2-mediated uptake of ten anti-malarials (AMO, ART, ATO, CQ, DHA, LUM, MQ, PQ, PG, and QN) was performed. NMQ served as a positive substrate for both OCT1 and OCT2 import. In short, cells were washed with 400 µL 37 °C HBSS-HEPES buffer followed by adding 150 µL HBSS buffer with 10 µM anti-malarial or NMQ to each well. After incubation for 15 min at 37 °C, import was stopped by washing with 400 µL ice-cold HBSS-HEPES buffer supplemented with 0.5% BSA. Following a second wash with 400 µL ice-cold HBSS-HEPES buffer, cells were lysed with 200 µL 50% (v/v) MeOH and 0.1% (v/v) formic acid (HCOOH) in water and samples were sent for quantification by mass spectrometry analysis (see “LC–MS/MS quantification of anti-malarials” section). […]
as §3
Import and export of PG and cycloguanil (CG) was assessed by single and double transduced HEK293 cells. […] Following the same procedure as for the cellular import assay described above, the import of 100 µM PG and CG was measured after 5 min incubation and data was plotted as mean pmol/mg/min ± SEM. […] Significant reduction in uptake (i.e. export by MATEs) was determined using ln transformation and a one-way repeated measures ANOVA with Dunnet’s post test.
Anti-malarial concentration in the cell lysates was quantified using an LC–MS/MS system consisting of a UPLC, a binary solvent manager, a vacuum degasser and an autosampler, coupled to a Xevo TQ-S micro triple quadrupole mass spectrometer. […]

[8] = substrate: [H]/N=C(\N/C(=N/[H])Nc1ccc(Cl)cc1)NC(C)C; test: as above; format: cell-based, human; settings: other: 1 min incubation, 37 °C, 2.0–16 µM, pH 7.4
Description: HEK293 cells were modified to transiently express (a combination of) human OCT1, OCT2, MATE1, MATE2-K, or eYFP. Briefly, cDNA of the respective genes was cloned downstream of a CMV promoter into a baculovirus, of which passage three was used to transduce HEK293 cells. These cells were seeded in poly-D-lysine coated 24- or 96-wells plates and grown in a 37 °C incubator at 5% CO2. Growth was initiated at ~ 25% confluency using 375 or 125 μL cell and complete medium (DMEM + GlutaMAX™-I supplemented with 10% fetal bovine serum) suspension per well, respectively. […]
HEK293 cells were seeded in 24-wells poly-D-lysine coated plates and transduced the subsequent day with OCT1 or OCT2 as described above. […] Following a second wash with 400 µL ice-cold HBSS-HEPES buffer, cells were lysed with 200 µL 50% (v/v) MeOH and 0.1% (v/v) formic acid (HCOOH) in water and samples were sent for quantification by mass spectrometry analysis (see “LC–MS/MS quantification of anti-malarials” section). […]
as §3
Import and export of PG and cycloguanil (CG) was assessed by single and double transduced HEK293 cells. […]

[9] = 50 µM anti-malarial, 10 µM ASP, 10 min, 37 °C, relative to solvent control fixed at 100%

CCN(CC)Cc1cc(Nc2ccnc3cc(Cl)ccc23)ccc1O [Amodiaquine, amodiaquine dihydrochloride dehydrate]
Cmax [1]: 5.2^c [45] ng/mL
Relative ASP uptake (OCT1-mediated) (human OCT1 [2]): 67 ± 4%
Cmax [3]: 0.015 µM
Unbound fraction [4]: 0.1 [46]
IC50 (human OCT2 [5]; 10 µM ASP, 10 min, 37 °C, seven concentrations): 11 µM
Relative ASP uptake (OCT2-mediated) (human OCT2 [5]; [9]): 12.1 ± 0.6%

C[C@@H]1CC[C@H]2[C@@H](C)C(=O)O[C@@H]3O[C@@]4(C)CC[C@@H]1[C@]32OO4 [Artemisinin, artemisinin]
Relative ASP uptake (OCT2-mediated) (human OCT2 [5]; [9]): 61 ± 13%

CCN(CC)CCCC(C)Nc1ccnc2cc(Cl)ccc12 (centres unmarked) [Chloroquine, chloroquine diphosphate]
Relative ASP uptake (OCT2-mediated) (human OCT2 [5]): 48 ± 11%

OC(c1cc(C(F)(F)F)nc2c(C(F)(F)F)cccc12)C1CCCCN1 (centres unmarked) [Mefloquine, mefloquine hydrochloride]
Relative ASP uptake (OCT1-mediated) (human OCT1 [2]): 150 ± 21%

C=C[C@H]1C[N+]2(C)CC[C@H]1C[C@@H]2[C@@H](O)c1ccnc2ccc(OC)cc12 [NMQ, N-methyl-quinidine]
Uptake by OCT2, percentage of mock-transduced control (human OCT2 [6]): taken up
Uptake by OCT1, percentage of mock-transduced control (human OCT1 [7]): taken up

COc1cc(NC(C)CCCN)c2ncccc2c1 (centres unmarked) [Primaquine, primaquine diphosphate]
Relative ASP uptake (OCT1-mediated) (human OCT1 [2]): 59 ± 3%
Relative ASP uptake (OCT2-mediated) (human OCT2 [5]; [9]): 60 ± 7%

B1: human OCT1 (Homo sapiens) (protein)
chain: T1 sequence (O15245 1-554)
notes: host or cells: HEK293, baculovirus transduction (CMV promoter), transient
Km [8]: 8.1 µM
